Blank lines part the entries; values can stand above or below the molecule they belong to.
Tests used:
[1] = molecular target: T1, Cyclin-dependent kinase 2 (Homo sapiens, UniProt P24941); assay: Binding affinity to N-terminal His-tagged recombinant human CDK2 (1 to 298 amino acid residues) expressed in Escherichia coli BL21 assessed as inhibition of interaction with cyclin A3 by measuring HHASPRK phosphorylation at 100 uM by ADP-Glo Max assay relative to control
[2] = molecular target: T1, Cyclin-dependent kinase 2; assay: Binding affinity to N-terminal His-tagged recombinant human CDK2 (1 to 298 amino acid residues) expressed in Escherichia coli BL21 assessed as inhibition of interaction with cyclin A3 by measuring 250 uM HHASPRK phosphorylation by ADP-Glo Max assay in presence of 75 uM ATP
[3] = molecular target: T1, Cyclin-dependent kinase 2; assay: Binding affinity to N-terminal His-tagged recombinant human CDK2 (1 to 298 amino acid residues) expressed in Escherichia coli BL21 assessed as inhibition of interaction with cyclin A3 by measuring 250 uM HHASPRK phosphorylation by ADP-Glo Max assay in presence of 375 uM ATP
[4] = molecular target: T1, Cyclin-dependent kinase 2; assay: Binding affinity to N-terminal His-tagged recombinant human CDK2 (1 to 298 amino acid residues) expressed in Escherichia coli BL21 assessed as inhibition of interaction with cyclin A3 by measuring 250 uM HHASPRK phosphorylation by ADP-Glo Max assay in presence of 750 uM ATP
[5] = molecular target: T1, Cyclin-dependent kinase 2; assay: Binding affinity to N-terminal His-tagged recombinant human CDK2 (1 to 298 amino acid residues) expressed in Escherichia coli BL21 assessed as inhibition of interaction with cyclin A3 by measuring 1.25 mM HHASPRK phosphorylation by ADP-Glo Max assay in presence of 75 uM ATP
[6] = molecular target: T1, Cyclin-dependent kinase 2; assay: Binding affinity to N-terminal His-tagged recombinant human CDK2 (1 to 298 amino acid residues) expressed in Escherichia coli BL21 assessed as inhibition of interaction with cyclin A3 by measuring 2.5 mM HHASPRK phosphorylation by ADP-Glo Max assay in presence of 75 uM ATP
[7] = molecular target: Cyclin-dependent kinase 2 (Homo sapiens, UniProt P24941, R150A); assay: Binding affinity to human CDK2 R150A mutant expressed in Escherichia coli BL21 assessed as inhibition of interaction with cyclin A3 by measuring HHASPRK phosphorylation by ADP-Glo Max assay
[8] = molecular target: Cyclin-dependent kinase 2 (Homo sapiens, UniProt P24941, Y180A); assay: Binding affinity to human CDK2 Y180A mutant expressed in Escherichia coli BL21 assessed as inhibition of interaction with cyclin A3 by measuring HHASPRK phosphorylation by ADP-Glo Max assay
A549 [9] = assay: Cytotoxicity against human A549 cells assessed as cell viability after 72 hrs by MTS assay; type: functional, cell-based
HepG2 = assay: Cytotoxicity against human HepG2 cells assessed as cell viability after 72 hrs by MTS assay; type: functional, cell-based
MDA-MB-231 = assay: Cytotoxicity against human MDA-MB-231 cells assessed as cell viability after 72 hrs by MTS assay; type: functional, cell-based
A549 [10] = assay: Cell cycle arrest in human A549 cells assessed as accumulation at G0/G1 phase at 10 uM after 72 hrs by propidium iodide staining-based flow cytometric analysis (reference value: 68.68%); type: functional
A549 [11] = assay: Cell cycle arrest in human A549 cells assessed as accumulation at S phase at 10 uM after 72 hrs by propidium iodide staining-based flow cytometric analysis (reference value: 11.53%); type: functional
A549 [12] = assay: Cell cycle arrest in human A549 cells assessed as accumulation at G2/M phase at 10 uM after 72 hrs by propidium iodide staining-based flow cytometric analysis (reference value: 19.79%); type: functional
A549 [13] = assay: Cell cycle arrest in human A549 cells assessed as accumulation at G0/G1 phase at 25 uM after 72 hrs by propidium iodide staining-based flow cytometric analysis (reference value: 68.68%); type: functional
A549 [14] = assay: Cell cycle arrest in human A549 cells assessed as accumulation at S phase at 25 uM after 72 hrs by propidium iodide staining-based flow cytometric analysis (reference value: 11.53%); type: functional
A549 [15] = assay: Cell cycle arrest in human A549 cells assessed as accumulation at G2/M phase at 25 uM after 72 hrs by propidium iodide staining-based flow cytometric analysis (reference value: 19.79%); type: functional
A549 [16] = assay: Cell cycle arrest in human A549 cells assessed as accumulation at G0/G1 phase at 50 uM after 72 hrs by propidium iodide staining-based flow cytometric analysis (reference value: 68.68%); type: functional
A549 [17] = assay: Cell cycle arrest in human A549 cells assessed as accumulation at S phase at 50 uM after 72 hrs by propidium iodide staining-based flow cytometric analysis (reference value: 11.53%); type: functional
A549 [18] = assay: Cell cycle arrest in human A549 cells assessed as accumulation at G2/M phase at 50 uM after 72 hrs by propidium iodide staining-based flow cytometric analysis (reference value: 19.79%); type: functional
A549 [19] = assay: Cell cycle arrest in human A549 cells assessed as accumulation at G0/G1 phase at 200 uM after 72 hrs by propidium iodide staining-based flow cytometric analysis (reference value: 68.68%); type: functional
A549 [20] = assay: Cell cycle arrest in human A549 cells assessed as accumulation at S phase at 200 uM after 72 hrs by propidium iodide staining-based flow cytometric analysis (reference value: 11.53%); type: functional
A549 [21] = assay: Cell cycle arrest in human A549 cells assessed as accumulation at G2/M phase at 200 uM after 72 hrs by propidium iodide staining-based flow cytometric analysis (reference value: 19.79%); type: functional
[22] = molecular target: T1, Cyclin-dependent kinase 2; assay: Binding affinity to GST-tagged recombinant human CDK2 (1 to 298 amino acid residues) expressed in Escherichia coli BL21 assessed as inhibition of interaction with His-tagged cyclin A3 preincubated overnight with GST-tagged protein followed by His-tagged cyclin A3 addition by GST pull down assay

SMILES: O=C(CSc1nc2ccc(NC(=O)CSCC(=O)Nc3ccc4ccccc4c3)cc2s1)NCCOc1ccccc1
inhibition [1]: < 5%

SMILES: CC(=O)C1=C(O)C(=O)N(CO)C1c1ccccc1 (centres undefined)
inhibition [1]: < 5%

SMILES: COc1ccccc1OCCOc1ccccc1/C=c1\sc2n(c1=O)C(c1ccccc1)C(C(=O)Nc1ccccc1)=C(C)N=2 (centres undefined)
inhibition [1]: < 5%

SMILES: Cc1ccc(S(=O)(=O)Nc2ccc(C(=O)N3N=C(c4c(-c5ccccc5)c5cc(Br)ccc5[nH]c4=O)CC3c3ccccc3)cc2)cc1 (centres undefined)
inhibition [1]: < 5%

SMILES: Cn1c(=O)[nH]c(=O)c2c1nc(N/N=C1/C(=O)Nc3ccccc31)n2CC(O)COc1ccccc1 (centres undefined)
inhibition [1]: < 5%

SMILES: CCOc1cc(C(=O)Nc2ccc(S(=O)(=O)Nc3nc(C)cc(C)n3)cc2)cc(OCC)c1OCC
inhibition [1]: 62.3%
IC50 [2]: 105 µM

SMILES: Cc1cc(C)nc(NS(=O)(=O)c2ccc(NC(=O)CCCCC(=O)Nc3ccc(S(=O)(=O)Nc4nc(C)cc(C)n4)cc3)cc2)n1
inhibition [1]: 38%

SMILES: C/C(Cc1ccccc1)=N\Nc1nnc2c(n1)[nH]c1ccccc12
inhibition [1]: 35.2%

SMILES: OC(CN1CCN(CC(O)Cn2c3ccc(Br)cc3c3cc(Br)cc(Br)c32)CC1)Cn1c2ccccc2c2ccccc21 (centres undefined)
inhibition [1]: 31%

SMILES: CN1C(=O)c2cccc3c(S(=O)(=O)NCCC(=O)O)ccc1c23
inhibition [1]: 5.54%

Second part, led by results:

inhibition [1]: 8.39%
SMILES: CCN(C(=O)CCNC(=O)Cn1cnc2ccccc2c1=O)c1cccc(C(F)(F)F)c1

inhibition [1]: < 5%
SMILES: CCOC(=O)C(Cc1ccc(OC)c([N+](=O)[O-])c1)NC(=O)CCC(=O)Nc1ccc(S(N)(=O)=O)cc1 (centres undefined)

inhibition [1]: 65.5%
IC50 [2]: 52.1 µM
IC50 [3]: 78.3 µM
IC50 [4]: 55.1 µM
IC50 [5]: 58.1 µM
IC50 [6]: 69.8 µM
IC50 [7]: 885 µM
IC50 [8]: 151 µM
Activity [22]: Dose-dependent effect
SMILES: CSc1ccc(/C=N/c2cc([N+](=O)[O-])ccc2O)cc1
Activity (A549 [9]): Dose-dependent effect
Activity (HepG2): Dose-dependent effect
Activity (MDA-MB-231): Dose-dependent effect
Activity (A549 [10]): 66.03%
Activity (A549 [11]): 15.21%
Activity (A549 [12]): 18.76%
Activity (A549 [13]): 65.26%
Activity (A549 [14]): 21.91%
Activity (A549 [15]): 12.83%
Activity (A549 [16]): 60.8%
Activity (A549 [17]): 26.21%
Activity (A549 [18]): 12.99%
Activity (A549 [19]): 43.49%
Activity (A549 [20]): 41.3%
Activity (A549 [21]): 15.2%

inhibition [1]: 37.5%
SMILES: Cc1ccccc1C(=O)N(Cc1ccc(C(F)(F)F)cc1)c1ccc(CC(=O)NCc2ccc(F)cc2)cc1

inhibition [1]: < 5%
SMILES: Cc1[nH]c2ccccc2c1/C=N/c1ccccc1C(=O)O

— ChEMBL document CHEMBL3616388, “Discovery of novel nonpeptide allosteric inhibitors interrupting the interaction of CDK2/cyclin A3 by virtual screening and bioassays” (Bioorg Med Chem Lett, 2015)
